According to US9493464B2, “Wee1 degradation inhibitors” (The Scripps Research Institute, priority 2012, dated 2016):
pIC50: −log10 of the molar value. “And” between values parts separate entries of the source, which are not always exact repeats. Identical values can stand only once.

System: K328M-Wee1-luciferase
Experiment: Wee1-luciferase assay (stabilization of K328M-Wee1-luciferase)
Type: cell-based
Conditions: at 250 nM, reported relative to SR-1277 = 100%
Excerpt: Steady-state level of K328M-Wee1-Luciferase (K328M-Wee1-Luc) was divided by Luciferase level (Luc) and plotted.
Similar assays have previously been described; PubChem AID 1807.

| SMILES | % Inhibition, Wee1 Degradation [%] |
| --- | --- |
| CN1CCN(c2nc(NCc3nc4ccccc4[nH]3)c3ncn(-c4ccsc4)c3n2)CC1 [SR-1294] | 14.1 |
| Cn1c(CNc2nc(N3CCOCC3)nc3c2ncn3-c2ccsc2)nc2ccccc21 [SR-2001] | 1.7 |
| O=[N+]([O-])c1cccc2[nH]c(CNc3nc(N4CCOCC4)nc4c3ncn4-c3ccoc3)nc12 [SR-2007] | 81.1 |
| c1ccc2[nH]c(CNc3nc(N4CCOCC4)nc4c3ncn4C3CCCC3)nc2c1 [SR-2149] | 6.1 |

Target: T1, FLT3 (Homo sapiens, UniProt P36888)
T1 construct: Reaction Biology Corporation (contract assay)
T1 sequence (P36888 27-993): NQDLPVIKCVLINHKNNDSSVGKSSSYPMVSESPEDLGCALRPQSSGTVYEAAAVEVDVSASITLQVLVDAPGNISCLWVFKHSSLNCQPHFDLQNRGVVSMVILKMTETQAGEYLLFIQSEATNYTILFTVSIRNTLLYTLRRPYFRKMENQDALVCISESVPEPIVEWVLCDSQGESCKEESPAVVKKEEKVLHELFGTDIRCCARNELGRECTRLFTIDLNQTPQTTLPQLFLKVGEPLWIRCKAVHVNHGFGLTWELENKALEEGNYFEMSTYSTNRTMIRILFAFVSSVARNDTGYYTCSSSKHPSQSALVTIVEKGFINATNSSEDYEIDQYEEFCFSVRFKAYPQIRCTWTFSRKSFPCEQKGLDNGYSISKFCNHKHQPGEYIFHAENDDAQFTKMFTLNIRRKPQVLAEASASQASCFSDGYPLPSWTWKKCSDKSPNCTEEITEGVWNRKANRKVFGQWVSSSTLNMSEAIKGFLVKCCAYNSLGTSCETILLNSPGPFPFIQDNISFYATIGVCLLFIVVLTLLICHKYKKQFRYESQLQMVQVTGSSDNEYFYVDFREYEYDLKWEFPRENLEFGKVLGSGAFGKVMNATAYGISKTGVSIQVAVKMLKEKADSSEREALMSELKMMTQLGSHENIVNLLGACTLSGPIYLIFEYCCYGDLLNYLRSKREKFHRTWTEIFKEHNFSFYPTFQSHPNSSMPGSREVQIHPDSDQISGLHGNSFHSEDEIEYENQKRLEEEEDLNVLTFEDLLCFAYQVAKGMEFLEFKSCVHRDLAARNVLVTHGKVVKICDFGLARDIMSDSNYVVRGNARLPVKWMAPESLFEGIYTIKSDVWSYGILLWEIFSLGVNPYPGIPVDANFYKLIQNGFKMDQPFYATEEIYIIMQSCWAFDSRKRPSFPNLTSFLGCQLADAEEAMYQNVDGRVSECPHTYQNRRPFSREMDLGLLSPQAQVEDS
Experiment: In vitro kinase assay, FLT3 (Reaction Biology Corporation)
Type: biochemical
Conditions: determined by Reaction Biology Corporation; read-out: IC50 FLT3
Protocol: (§1) Compounds were tested in 10-dose IC50 mode with 3-fold serial dilution starting at 50 μM. […] Reactions were carried out at 10 μM ATP. Average and standard deviations of reactions carried out in triplicate are shown.
(§2) In vitro kinase assay to detect CK1 or FLT3 activity: CK1 and FLT3 assays as well as complete kinase profile of 296 kinases was performed by Reaction Biology Corporation. For FLT3 20 μM final Abltide was used, sequence: [[…]]. For CK1 (all isoforms) 20 μM CK1 tide was used, sequence: [KRRRAL[pS]VASLPGL] in a standard kinase assay with ^32P-ATP and purified kinase. Incorporation of ^32P-ATP into the peptide was measured after a filter-binding assay. In-house CK1d inhibition assays were performed using a standard homogenous time-resolved fluorescence resonance energy transfer (TR-FRET) format in 50 mM Hepes, pH 7.0, 2.5 mM MgCl2, 0.1 mg/ml bovine serum albumin, 1 mM DL-dithiothreitol, 0.01% Triton X-100 (all from Sigma-Aldrich). Briefly, the CK1δ substrate (DEKTDDE, containing CK1 consensus sequence; 4 μL of a 500 nM stock solution) is labeled with a small Ulight acceptor dye (PerkinElmer). In the presence of 10 μL of 10 nM CK1δ, the Ulight peptide is phosphorylated at a single amino acid that is specifically recognized by a europium chelate (Eu)-labeled phosphospecific antibody. Assays were performed in the presence of 2 μL of compound at different (measured) concentrations, and reactions were stopped by adding 10 μL of 4 nM Eu-anti-p-Topo-IIa (PerkinElmer) in Lance Detection Buffer (Perkin Elmer). Upon excitation of the Eu-labeled antibody, energy is transferred to the acceptor dye resulting in the emission of detected light at 665 nm.

| SMILES | pIC50 |
| --- | --- |
| CN1CCN(c2nc(NCc3nc4ccccc4[nH]3)c3ncn(-c4ccsc4)c3n2)CC1 [SR-1294] | 7.17 |
| Cn1c(CNc2nc(N3CCOCC3)nc3c2ncn3-c2ccsc2)nc2ccccc21 [SR-2001] | 6.90 |
| O=[N+]([O-])c1cccc2[nH]c(CNc3nc(N4CCOCC4)nc4c3ncn4-c3ccoc3)nc12 [SR-2007] | 6.46 |
| c1ccc2[nH]c(CNc3nc(N4CCOCC4)nc4c3ncn4C3CCCC3)nc2c1 [SR-2149] | 6.40 |
| CS(=O)(=O)c1ccc2[nH]c(CNc3nc(N4CCOCC4)nc4c3ncn4-c3ccsc3)nc2c1 [SR-2797] | 7.16 |
| CS(=O)(=O)c1cccc2[nH]c(CNc3nc(N4CCOCC4)nc4c3ncn4-c3ccsc3)nc12 [SR-2805] | 7.24 |
| COc1ccc2[nH]c(CNc3nc(N4CCN(C)CC4)nc4c3ncn4-c3ccoc3)nc2c1 [SR-2848] | 6.53 |
| CN1CCN(c2nc(NCc3nc4cc(Cl)ccc4[nH]3)c3ncn(-c4ccoc4)c3n2)CC1 [SR-2849] | 6.74 |
| Clc1ccc2[nH]c(CNc3nc(N4CCOCC4)nc4c3ncn4-c3ccoc3)nc2c1 [SR-2850] | 6.89 |
| CN1CCN(c2nc(NCc3nc4cc(F)ccc4[nH]3)c3ncn(-c4ccoc4)c3n2)CC1 [SR-2866] | 6.67 |
| Clc1ccc2[nH]c(CNc3nc(N4CCNCC4)nc4c3ncn4-c3ccoc3)nc2c1 [SR-2889] | 7.09 |
| Fc1cccc(-n2cnc3c(NCc4nc5cc(Cl)ccc5[nH]4)nc(N4CCNCC4)nc32)c1 [SR-2890] | 6.09 |

Target: CK1δ (Homo sapiens, UniProt P48730)
Sequence (P48730 whole entry): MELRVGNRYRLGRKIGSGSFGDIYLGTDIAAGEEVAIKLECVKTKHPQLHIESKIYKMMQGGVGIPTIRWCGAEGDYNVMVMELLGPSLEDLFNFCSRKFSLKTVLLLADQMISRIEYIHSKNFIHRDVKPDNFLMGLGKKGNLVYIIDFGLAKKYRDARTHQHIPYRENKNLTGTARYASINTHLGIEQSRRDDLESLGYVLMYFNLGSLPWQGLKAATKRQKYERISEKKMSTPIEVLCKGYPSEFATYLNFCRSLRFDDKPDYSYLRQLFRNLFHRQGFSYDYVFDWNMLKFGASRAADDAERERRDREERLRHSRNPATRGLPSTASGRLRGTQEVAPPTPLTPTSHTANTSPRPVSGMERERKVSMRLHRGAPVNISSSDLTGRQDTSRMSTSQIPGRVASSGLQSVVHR
Experiment: In vitro kinase assay, CK1d, 32P-ATP filter binding (Reaction Biology Corporation)
Type: biochemical
Conditions: footnote a: determined by Reaction Biology Corporation; read-out: IC50 CK1d
Protocol: as §1, §2

| SMILES | pIC50 |
| --- | --- |
| CN1CCN(c2nc(NCc3nc4ccccc4[nH]3)c3ncn(-c4ccsc4)c3n2)CC1 [SR-1294] | 7.96 |
| Cn1c(CNc2nc(N3CCOCC3)nc3c2ncn3-c2ccsc2)nc2ccccc21 [SR-2001] | 7.66 |
| O=[N+]([O-])c1cccc2[nH]c(CNc3nc(N4CCOCC4)nc4c3ncn4-c3ccoc3)nc12 [SR-2007] | 7.74 and 7.72 |
| c1ccc2[nH]c(CNc3nc(N4CCOCC4)nc4c3ncn4C3CCCC3)nc2c1 [SR-2149] | 7.34 |
| O=[N+]([O-])c1cccc2[nH]c(CNc3nc(N4CCOCC4)nc4c3ncn4-c3ccc(F)cc3)nc12 [SR-2362] | 5.95 |
| CS(=O)(=O)c1ccc2[nH]c(CNc3nc(N4CCOCC4)nc4c3ncn4-c3ccsc3)nc2c1 [SR-2797] | 8.00 |
| CS(=O)(=O)c1cccc2[nH]c(CNc3nc(N4CCOCC4)nc4c3ncn4-c3ccsc3)nc12 [SR-2805] | 7.80 |
| COc1ccc2[nH]c(CNc3nc(N4CCN(C)CC4)nc4c3ncn4-c3ccoc3)nc2c1 [SR-2848] | 7.54 |
| CN1CCN(c2nc(NCc3nc4cc(Cl)ccc4[nH]3)c3ncn(-c4ccoc4)c3n2)CC1 [SR-2849] | 7.96 |
| Clc1ccc2[nH]c(CNc3nc(N4CCOCC4)nc4c3ncn4-c3ccoc3)nc2c1 [SR-2850] | 7.64 |
| CN1CCN(c2nc(NCc3nc4cc(F)ccc4[nH]3)c3ncn(-c4ccoc4)c3n2)CC1 [SR-2866] | 7.70 |
| Clc1ccc2[nH]c(CNc3nc(N4CCNCC4)nc4c3ncn4-c3ccoc3)nc2c1 [SR-2889] | 8.30 |
| Fc1cccc(-n2cnc3c(NCc4nc5cc(Cl)ccc5[nH]4)nc(N4CCNCC4)nc32)c1 [SR-2890] | 8.40 |

System: A498 (renal)
Experiment: NCI Dose Growth Inhibition assay (NCI-60)
Type: cell-based
Conditions: Homo sapiens; A498 (renal); read-out: GI50
Protocol: (§3) Table 3, below, illustrates the activity of some of the compounds of the present invention in the National Cancer Institute's Dose Growth Inhibition assay against several human tumor cell lines selected from the NCI-60 panel.
(§4) NCI-60 Cancer Cell Line Screening was performed by the National Cancer Institute, using the procedures described on their website (http://dtp.nci.nih.gov/branches/btb/ivelsp.html)

| SMILES | GI50 [µM] |
| --- | --- |
| CN1CCN(c2nc(NCc3nc4cc(Cl)ccc4[nH]3)c3ncn(-c4ccoc4)c3n2)CC1 [SR-2849] | 0.113 |
| Clc1ccc2[nH]c(CNc3nc(N4CCNCC4)nc4c3ncn4-c3ccoc3)nc2c1 [SR-2889] | 0.024 |
| Fc1cccc(-n2cnc3c(NCc4nc5cc(Cl)ccc5[nH]4)nc(N4CCNCC4)nc32)c1 [SR-2890] | 0.207 |

System: COLO 205 (colon)
Experiment: NCI Dose Growth Inhibition assay (NCI-60)
Type: cell-based
Conditions: Homo sapiens; COLO 205 (colon); read-out: GI50
Protocol: as §3, §4

| SMILES | GI50 [µM] |
| --- | --- |
| CN1CCN(c2nc(NCc3nc4cc(Cl)ccc4[nH]3)c3ncn(-c4ccoc4)c3n2)CC1 [SR-2849] | 0.025 |
| Clc1ccc2[nH]c(CNc3nc(N4CCNCC4)nc4c3ncn4-c3ccoc3)nc2c1 [SR-2889] | < 0.01 |
| Fc1cccc(-n2cnc3c(NCc4nc5cc(Cl)ccc5[nH]4)nc(N4CCNCC4)nc32)c1 [SR-2890] | 0.029 |

System: MDA-MB-468 (breast)
Experiment: NCI Dose Growth Inhibition assay (NCI-60)
Type: cell-based
Conditions: Homo sapiens; MDA-MB-468 (breast); read-out: GI50
Protocol: as §3, §4

| SMILES | GI50 [µM] |
| --- | --- |
| CN1CCN(c2nc(NCc3nc4cc(Cl)ccc4[nH]3)c3ncn(-c4ccoc4)c3n2)CC1 [SR-2849] | < 0.01 |
| Clc1ccc2[nH]c(CNc3nc(N4CCNCC4)nc4c3ncn4-c3ccoc3)nc2c1 [SR-2889] | < 0.01 |
| Fc1cccc(-n2cnc3c(NCc4nc5cc(Cl)ccc5[nH]4)nc(N4CCNCC4)nc32)c1 [SR-2890] | 0.012 |

System: RXF393 (renal)
Experiment: NCI Dose Growth Inhibition assay (NCI-60)
Type: cell-based
Conditions: Homo sapiens, RXF 393; RXF393 (renal); read-out: GI50
Protocol: as §3, §4

| SMILES | GI50 [µM] |
| --- | --- |
| CN1CCN(c2nc(NCc3nc4cc(Cl)ccc4[nH]3)c3ncn(-c4ccoc4)c3n2)CC1 [SR-2849] | 0.017 |
| Clc1ccc2[nH]c(CNc3nc(N4CCNCC4)nc4c3ncn4-c3ccoc3)nc2c1 [SR-2889] | < 0.01 |
| Fc1cccc(-n2cnc3c(NCc4nc5cc(Cl)ccc5[nH]4)nc(N4CCNCC4)nc32)c1 [SR-2890] | 0.041 |

System: SNB-75 (CNS)
Experiment: NCI Dose Growth Inhibition assay (NCI-60)
Type: cell-based
Conditions: Homo sapiens; SNB-75 (CNS); read-out: GI50
Protocol: as §3, §4

| SMILES | GI50 [µM] |
| --- | --- |
| CN1CCN(c2nc(NCc3nc4cc(Cl)ccc4[nH]3)c3ncn(-c4ccoc4)c3n2)CC1 [SR-2849] | 0.019 |
| Clc1ccc2[nH]c(CNc3nc(N4CCNCC4)nc4c3ncn4-c3ccoc3)nc2c1 [SR-2889] | < 0.01 |
| Fc1cccc(-n2cnc3c(NCc4nc5cc(Cl)ccc5[nH]4)nc(N4CCNCC4)nc32)c1 [SR-2890] | 0.046 |

System: UACC-62 (melanoma)
Experiment: NCI Dose Growth Inhibition assay (NCI-60)
Type: cell-based
Conditions: Homo sapiens; UACC-62 (melanoma); read-out: GI50
Protocol: as §3, §4

| SMILES | GI50 [µM] |
| --- | --- |
| CN1CCN(c2nc(NCc3nc4cc(Cl)ccc4[nH]3)c3ncn(-c4ccoc4)c3n2)CC1 [SR-2849] | 0.13 |
| Clc1ccc2[nH]c(CNc3nc(N4CCNCC4)nc4c3ncn4-c3ccoc3)nc2c1 [SR-2889] | 0.017 |
| Fc1cccc(-n2cnc3c(NCc4nc5cc(Cl)ccc5[nH]4)nc(N4CCNCC4)nc32)c1 [SR-2890] | 0.182 |
